Data reported in the supplement of paper PMC10307832.

Experiments:
Experiment in all cases: relative viability (nuclei count vs DMSO), 5 days (fraction); higher = more cells survive
NCI-H727 = tested on: NCI-H727
Procedure, shortened: (§1)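 Relative viability divides the nuclei count in treated wells by that in vehicle wells. Lung cancer cell lines were seeded in 1536-well plates, dosed by pin tool the next day, and fixed and stained after 5 days in one step with final 0.05% Triton X-100, 1% formaldehyde and 1 ug/ml Hoechst. Dosing was a single drug or a fixed anchor-drug dose plus five library-drug doses (not always all listed) in √10 steps, and values are medians of duplicate plates imaged at 4×.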

LOU-NH91 = tested on: LOU-NH91
Procedure, shortened: as §1

NCI-H23 = tested on: NCI-H23
Procedure, shortened: as §1

NCI-H650 = tested on: NCI-H650
Procedure, shortened: as §1

NCI-H2405 = tested on: NCI-H2405
Procedure, shortened: as §1

ChaGo-K-1 = tested on: ChaGo-K-1
Procedure, shortened: as §1

201T = tested on: 201T
Procedure, shortened: as §1

EKVX = tested on: EKVX
Procedure, shortened: as §1

NCI-H2228 = tested on: NCI-H2228
Procedure, shortened: as §1

NCI-H2126 = tested on: NCI-H2126
Procedure, shortened: as §1

SW 900 = tested on: SW 900
Procedure, shortened: as §1

NCI-H3122 = tested on: NCI-H3122
Procedure, shortened: as §1

H3255 = tested on: H3255
Procedure, shortened: as §1

COR-L 105 = tested on: COR-L 105
Procedure, shortened: as §1

NCI-H661 = tested on: NCI-H661
Procedure, shortened: as §1

SK-LU-1 = tested on: SK-LU-1
Procedure, shortened: as §1

HARA = tested on: HARA
Procedure, shortened: as §1

NCI-H1975 = tested on: NCI-H1975
Procedure, shortened: as §1

PC-3 [JPC-3] = tested on: PC-3 [JPC-3]
Procedure, shortened: as §1

HCC-827 = tested on: HCC-827
Procedure, shortened: as §1

LCLC-103H = tested on: LCLC-103H
Procedure, shortened: as §1

NCI-H596 = tested on: NCI-H596
Procedure, shortened: as §1

HOP-62 = tested on: HOP-62
Procedure, shortened: as §1

CN1CCN(CCOc2cc(OC3CCOCC3)c3c(Nc4c(Cl)ccc5c4OCO5)ncnc3c2)CC1 [Saracatinib] + Cc1cc(Nc2cc(N3CCN(C)CC3)nc(Sc3ccc(NC(=O)C4CC4)cc3)n2)n[nH]1 [Tozasertib] (partner 0.1 µM)
relative viability (NCI-H727; first compound 0.02 µM): 0.618 | relative viability (NCI-H727; first compound 0.2 µM): 0.506 | relative viability (NCI-H727; first compound 0.6325 µM): 0.525 | relative viability (NCI-H727; first compound 2 µM): 0.454 | relative viability (LOU-NH91; first compound 0.02 µM): 0.655 | relative viability (LOU-NH91; first compound 0.2 µM): 0.449 | relative viability (LOU-NH91; first compound 0.6325 µM): 0.476 | relative viability (LOU-NH91; first compound 2 µM): 0.42 | relative viability (NCI-H23; first compound 0.02 µM): 0.743 | relative viability (NCI-H23; first compound 0.2 µM): 0.345 | relative viability (NCI-H23; first compound 0.6325 µM): 0.426 | relative viability (NCI-H23; first compound 2 µM): 0.327 | relative viability (NCI-H650; first compound 0.02 µM): 0.65 | relative viability (NCI-H650; first compound 0.2 µM): 0.656 | relative viability (NCI-H650; first compound 0.6325 µM): 0.701 | relative viability (NCI-H650; first compound 2 µM): 0.716 | relative viability (NCI-H2405; first compound 0.02 µM): 0.778 | relative viability (NCI-H2405; first compound 0.2 µM): 0.661 | relative viability (NCI-H2405; first compound 0.6325 µM): 0.706 | relative viability (NCI-H2405; first compound 2 µM): 0.521 | relative viability (ChaGo-K-1; first compound 0.02 µM): 0.24 | relative viability (ChaGo-K-1; first compound 0.2 µM): 0.233 | relative viability (ChaGo-K-1; first compound 0.6325 µM): 0.218 | relative viability (ChaGo-K-1; first compound 2 µM): 0.198 | relative viability (201T; first compound 0.02 µM): 0.977 | relative viability (201T; first compound 0.2 µM): 0.89 | relative viability (201T; first compound 0.6325 µM): 0.821 | relative viability (201T; first compound 2 µM): 0.686 | relative viability (EKVX; first compound 0.02 µM): 0.357 | relative viability (EKVX; first compound 0.6325 µM): 0.366 | relative viability (EKVX; first compound 2 µM): 0.254 | relative viability (NCI-H2228; first compound 0.02 µM): 0.222 | relative viability (NCI-H2228; first compound 0.2 µM): 0.148 | relative viability (NCI-H2228; first compound 0.6325 µM): 0.213 | relative viability (NCI-H2228; first compound 2 µM): 0.154 | relative viability (NCI-H2126; first compound 0.02 µM): 0.819 | relative viability (NCI-H2126; first compound 0.2 µM): 0.846 | relative viability (NCI-H2126; first compound 0.6325 µM): 0.815 | relative viability (NCI-H2126; first compound 2 µM): 0.648 | relative viability (SW 900; first compound 0.02 µM): 0.546 | relative viability (SW 900; first compound 0.2 µM): 0.533 | relative viability (SW 900; first compound 0.6325 µM): 0.645 | relative viability (SW 900; first compound 2 µM): 0.532 | relative viability (NCI-H3122; first compound 0.02 µM): 0.569 | relative viability (NCI-H3122; first compound 0.2 µM): 0.358 | relative viability (NCI-H3122; first compound 0.6325 µM): 0.384 | relative viability (NCI-H3122; first compound 2 µM): 0.298 | relative viability (H3255; first compound 0.02 µM): 0.621 | relative viability (H3255; first compound 0.2 µM): 0.585 | relative viability (H3255; first compound 0.6325 µM): 0.444 | relative viability (H3255; first compound 2 µM): 0.291 | relative viability (COR-L 105; first compound 0.02 µM): 0.358 | relative viability (COR-L 105; first compound 0.2 µM): 0.323 | relative viability (COR-L 105; first compound 0.6325 µM): 0.309 | relative viability (COR-L 105; first compound 2 µM): 0.282 | relative viability (NCI-H661; first compound 0.02 µM): 0.36 | relative viability (NCI-H661; first compound 0.2 µM): 0.308 | relative viability (NCI-H661; first compound 0.6325 µM): 0.342 | relative viability (NCI-H661; first compound 2 µM): 0.328 | relative viability (SK-LU-1; first compound 0.02 µM): 0.354 | relative viability (SK-LU-1; first compound 0.2 µM): 0.231 | relative viability (SK-LU-1; first compound 0.6325 µM): 0.172 | relative viability (SK-LU-1; first compound 2 µM): 0.132 | relative viability (HARA; first compound 0.02 µM): 0.118 | relative viability (HARA; first compound 0.2 µM): 0.0998 | relative viability (HARA; first compound 0.6325 µM): 0.0847 | relative viability (HARA; first compound 2 µM): 0.0726 | relative viability (NCI-H1975; first compound 0.02 µM): 0.697 | relative viability (NCI-H1975; first compound 0.2 µM): 0.709 | relative viability (NCI-H1975; first compound 0.6325 µM): 0.675 | relative viability (NCI-H1975; first compound 2 µM): 0.33 | relative viability (PC-3 [JPC-3]; first compound 0.02 µM): 0.933 | relative viability (PC-3 [JPC-3]; first compound 0.2 µM): 0.824 | relative viability (PC-3 [JPC-3]; first compound 0.6325 µM): 0.834 | relative viability (PC-3 [JPC-3]; first compound 2 µM): 0.469 | relative viability (HCC-827; first compound 0.02 µM): 0.404 | relative viability (HCC-827; first compound 0.2 µM): 0.311 | relative viability (HCC-827; first compound 0.6325 µM): 0.171 | relative viability (HCC-827; first compound 2 µM): 0.11 | relative viability (LCLC-103H; first compound 0.02 µM): 0.46 | relative viability (LCLC-103H; first compound 0.2 µM): 0.465 | relative viability (LCLC-103H; first compound 0.6325 µM): 0.465 | relative viability (LCLC-103H; first compound 2 µM): 0.454 | relative viability (NCI-H596; first compound 0.02 µM): 0.8 | relative viability (NCI-H596; first compound 0.2 µM): 0.847 | relative viability (NCI-H596; first compound 0.6325 µM): 1.07 | relative viability (NCI-H596; first compound 2 µM): 0.708 | relative viability (HOP-62; first compound 0.02 µM): 0.367 | relative viability (HOP-62; first compound 0.2 µM): 0.318 | relative viability (HOP-62; first compound 0.6325 µM): 0.394 | relative viability (HOP-62; first compound 2 µM): 0.384
